Entries after “also recorded” stand apart in the source; their conditions may differ.
Tests used:
[1] = literature statement; cited from earlier work
Nk3R [2] = biological target: T1, Nk3R (Homo sapiens, UniProt P29371); details: trials for schizophrenia, bipolar and panic disorder; cited from earlier work
T1 sequence (P29371 1-465): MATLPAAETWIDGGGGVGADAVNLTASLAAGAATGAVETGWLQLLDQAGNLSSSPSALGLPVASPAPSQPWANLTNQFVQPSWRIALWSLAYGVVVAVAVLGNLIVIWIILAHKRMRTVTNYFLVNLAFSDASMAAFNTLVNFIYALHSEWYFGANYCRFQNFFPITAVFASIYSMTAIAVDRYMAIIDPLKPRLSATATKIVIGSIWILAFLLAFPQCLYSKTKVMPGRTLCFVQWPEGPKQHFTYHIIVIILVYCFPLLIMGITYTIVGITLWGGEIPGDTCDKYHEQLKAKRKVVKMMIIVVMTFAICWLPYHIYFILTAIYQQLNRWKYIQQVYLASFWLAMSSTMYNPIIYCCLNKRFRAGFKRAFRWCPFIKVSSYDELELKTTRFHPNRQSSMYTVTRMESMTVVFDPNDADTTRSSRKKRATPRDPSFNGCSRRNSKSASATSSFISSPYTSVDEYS

Nk3R [3] = biological target: T2, Nk3R (Mus musculus, UniProt P47937); assay: Social interaction assay, osanetant; details: SIS mice; acute systemic osanetant
T2 sequence (P47937 1-452): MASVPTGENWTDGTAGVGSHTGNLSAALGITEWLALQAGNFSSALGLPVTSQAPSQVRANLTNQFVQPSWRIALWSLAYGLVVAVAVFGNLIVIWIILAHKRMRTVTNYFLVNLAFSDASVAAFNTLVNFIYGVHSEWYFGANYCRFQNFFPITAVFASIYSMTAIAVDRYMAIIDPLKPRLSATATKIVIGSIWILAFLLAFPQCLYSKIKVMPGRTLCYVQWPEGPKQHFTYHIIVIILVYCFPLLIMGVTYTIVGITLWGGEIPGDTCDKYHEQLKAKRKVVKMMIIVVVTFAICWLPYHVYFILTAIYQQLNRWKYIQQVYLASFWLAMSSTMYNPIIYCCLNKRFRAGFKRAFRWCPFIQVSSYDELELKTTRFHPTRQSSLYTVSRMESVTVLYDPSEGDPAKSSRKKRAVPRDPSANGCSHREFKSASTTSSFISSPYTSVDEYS

Nk3R [4] = biological target: T2, Nk3R; assay: Acoustic startle response, osanetant; details: SIS mice; acute systemic osanetant
Nk3R [5] = biological target: T2, Nk3R; assay: Looming disk assay (freezing), osanetant; details: for acute (and thereby persistent) freezing to innate threatening stimulus (looming disk): osanetant injection into CeA
Nk3R [6] = biological target: T2, Nk3R; assay: Resident intruder assay (aggression), osanetant; details: for SIS-induced aggression: osanetant microinfusion into DMH
Nk3R [7] = biological target: T2, Nk3R; assay: Tail rattles during looming disk assay, osanetant; details: SIS mice; acute systemic osanetant
Nk3R [8] = biological target: T2, Nk3R; assay: Tone fear conditioning test (freezing), osanetant; format: in vivo, mice; set-up: endogenous in cells; host or cells: living mice (wild-type C57Bl6/N males, Charles River); systemic i.p. dosing or microinfusion into dBNSTa, DMH, CeA; details: for acute (and thereby persistent) freezing to conditioned threatening stimulus (tone): osanetant injection into CeA; for SIS-induced persistent freezing to conditioned tone: osanetant microinfusion into dBNSTa, 375 ng per site, 20 min before test
Nk3R [9] = biological target: T2, Nk3R; assay: Shock reactivity (footshock), osanetant; format: in vivo, mice; set-up: endogenous in cells; host or cells: living mice (wild-type C57Bl6/N males, Charles River); systemic i.p. dosing or microinfusion into dBNSTa, DMH, CeA
Nk3R [10] = biological target: T2, Nk3R; assay: Return to housing with pre-isolation cagemates after SIS, osanetant; format: in vivo, mice; set-up: endogenous in cells; host or cells: living mice (wild-type C57Bl6/N males, Charles River); systemic i.p. dosing or microinfusion into dBNSTa, DMH, CeA; details: osanetant during SIS; data not shown
[11] = SIS mice, osanetant 5 mg/kg i.p. 20 min prior to assay
[12] = SIS mice, osanetant microinfusion into DMH
[13] = osanetant 5 mg/kg i.p. 20 min prior to assay, during stimulus
[14] = osanetant daily during two-week SIS, tested off-drug
[15] = SIS mice, osanetant injection into CeA
[16] = SIS mice, osanetant microinfusion into dBNSTa

CC(=O)N(C)C1(c2ccccc2)CCN(CCC[C@]2(c3ccc(Cl)c(Cl)c3)CCCN(C(=O)c3ccccc3)C2)CC1 [osanetant]
crossing of the blood-brain barrier [1]: crosses the blood-brain barrier
efficacy in clinical trials (Nk3R [2]): lack of efficacy
tolerability in clinical trials (Nk3R [2]): well tolerated
SIS-induced decreased social interaction (time in social zone) (Nk3R [3]): blocked; also recorded: attenuated
SIS-enhanced responding in acoustic startle assay (Nk3R [4]): blocked; also recorded: attenuated
SIS-induced persistent (post) freezing to looming disk (Nk3R [5]; [11]): blocked; also recorded: attenuated
acute (and thereby persistent) freezing to innate threatening stimulus (looming disk) (Nk3R [5]; SIS mice): reduced
acute (and thereby persistent) freezing to innate threatening stimulus (looming disk) (Nk3R [5]; SIS mice, listed as Osanetant): selectively blocked
SIS-induced persistent freezing to looming disk (Nk3R [5]; SIS mice, osanetant microinfusion into ACC): failed to yield significant effects; also recorded: No significant effects
persistent responses to looming stimulus (Nk3R [5]; [12]): had no effect
SIS-induced persistent freezing to looming disk (Nk3R [5]; SIS mice, osanetant microinfusion into dBNSTa, 375 ng per site, 20 min before test): selectively inhibited
SIS-induced persistent freezing to looming disk (Nk3R [5]; SIS mice, osanetant microinfusion into dBNSTa, 375 ng per site, 20 min before test, listed as Osanetant): selectively blocked
SIS-induced persistent freezing to looming disk (Nk3R [5]; SIS mice, osanetant microinfusion into striatum): failed to yield significant effects; also recorded: No significant effects
freezing during presentation of looming disk (Nk3R [5]; [13]): no significant differences
persistent freezing to looming disk (Nk3R [5]; [14]): prevented
aggression promoted by sexual experience (Nk3R [6]; 2 weeks co-habitation with a female, no isolation, systemic osanetant): had no effect
SIS-enhanced aggression (Nk3R [6]; [11]): blocked; also recorded: strongly reduced
aggression (Nk3R [6]; [15]): unaffected
SIS-induced aggression (Nk3R [6]; SIS mice): abolished
SIS-induced aggression (Nk3R [6]; SIS mice, listed as Osanetant): selectively blocked
aggression (Nk3R [6]; [16]): no effect
SIS-enhanced aggression (Nk3R [6]; [14]): prevented
SIS-induced increased tail rattling (Nk3R [7]): blocked; also recorded: attenuated
SIS-induced persistent (post) freezing to fear-conditioned tone (Nk3R [8]; [11]): blocked; also recorded: attenuated
acute (and thereby persistent) freezing to conditioned threatening stimulus (tone) (Nk3R [8]; SIS mice): reduced
acute (and thereby persistent) freezing to conditioned threatening stimulus (tone) (Nk3R [8]; SIS mice, listed as Osanetant): selectively blocked
persistent responses to conditioned tone (Nk3R [8]; [12]): had no effect
SIS-induced persistent freezing to conditioned tone (Nk3R [8]; SIS mice): selectively inhibited
SIS-induced persistent freezing to conditioned tone (Nk3R [8]; SIS mice, listed as Osanetant): selectively blocked
freezing during presentation of fear-conditioned tone (Nk3R [8]; [13]): no significant differences
persistent freezing to fear conditioned tone (Nk3R [8]; [14]): prevented
SIS-induced increased shock reactivity (Nk3R [9]; [11]): blocked
reactivity to footshock (SIS-enhanced) (Nk3R [9]; [15]): reduced; also recorded: blocked
responses to footshock (Nk3R [9]; [12]): had no effect
shock reactivity (Nk3R [9]; [16]): no effect
SIS-induced increase in shock reactivity (Nk3R [9]; [14]): a trend to protection; also recorded: reduced, but not significantly
fighting after return to housing with pre-isolation cagemates (Nk3R [10]): without any subsequent fighting observed

— US11376337B2, “Expression of neuropeptides” (California Institute of Technology, priority 2017, dated 2022)
